{
  "source": "patent US20260374739A1",
  "about": "“SMALL MOLECULAR WEIGHT CHEMICAL COMPOUND TO ANTAGONIZE EPH-EPHRIN TETRAMERIZATION AND INHIBIT BIDIRECTIONAL SIGNALING” (THE BOARD OF REGENTS OF THE UNIVERSITY OF TEXAS SYSTEM, priority 2022, published 2026)",
  "key": {"EphB2-Fc with EB2-His": {"target": "T1, EphB2-Fc with EB2-His (Mus musculus, UniProt P54763)", "T1 construct": "soluble EphB ectodomains conjugated to Fc from R&D Systems; mouse EB2-His residues 18-232; purchased R&D Systems (EphB-Fc); Sino Biologicals (EphrinB-His)", "T1 sequence (P54763 19-543 limits assumed)": "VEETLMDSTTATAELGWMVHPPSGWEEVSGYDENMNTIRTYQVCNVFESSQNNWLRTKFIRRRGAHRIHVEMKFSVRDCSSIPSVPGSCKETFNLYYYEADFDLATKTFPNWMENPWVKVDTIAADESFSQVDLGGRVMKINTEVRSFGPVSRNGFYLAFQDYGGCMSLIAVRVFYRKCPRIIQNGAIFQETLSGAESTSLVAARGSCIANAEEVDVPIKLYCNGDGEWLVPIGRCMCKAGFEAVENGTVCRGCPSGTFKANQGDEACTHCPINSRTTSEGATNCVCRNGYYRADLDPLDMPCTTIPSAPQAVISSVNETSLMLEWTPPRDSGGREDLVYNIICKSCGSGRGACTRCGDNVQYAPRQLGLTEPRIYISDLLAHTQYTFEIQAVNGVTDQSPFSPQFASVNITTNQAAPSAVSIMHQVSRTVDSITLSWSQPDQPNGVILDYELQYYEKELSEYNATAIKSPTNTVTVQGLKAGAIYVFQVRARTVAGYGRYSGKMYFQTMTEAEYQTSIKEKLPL", "test": "Alpha assay EphB2-EB2", "format": "binding", "procedure": "FIG. 5D depicts results from an alpha assay using EphB2-Fc or EphB4-Fc with EB2-His and increasing A20 concentrations to calculate IC50 determination (~10 μM, similar to that found in FIG. 5C).\nProtein interaction assays were developed using soluble EphB ectodomains conjugated to Fc from R&D Systems (e.g., rat EphB1-Fc residues 18-538, which is 99.4% identical to human) and EphrinB ectodomains conjugated to His from Sino Biologicals (e.g., mouse EB2-His residues 18-232, which is 97.7% identical to human). Titrating concentrations of the EphB1-Fc ectodomain (or unconjugated Fc protein as negative control) was added with titrating amounts of the three different EphrinB ectodomains (EB1-His, EB2-His, or EB3-His) with 125 ng each of the Protein A donor, anti-6×-His acceptor beads, 2% DMSO, and 1× HiBlock buffer (all from PerkinElmer) in 384 well plates, and after 3 hr incubation at RT were read in an Envision Multilabel Reader 2102. […] No signal above background (<1,500) was detected for wells that contained an Fc control protein and the EB-His proteins or just the EphB1-Fc protein and no EB-His protein.\nA20, E13, and other compounds from the top 32 hits were then characterized in pulldown assays. […]"}, "EphB2-His-Fc": {"test_system": "EphB2-His-Fc", "test": "single-protein counter ELISA", "conditions": "5 μM", "procedure": "The 32 hits were then subjected to ELISA in which EphB1-Fc was first immobilized in 96 well Protein A plates, then soluble EB2-His was added with hit compound in triplicate, again at 5 μM. After 2 hr at RT to allow EB2-His binding to EphB1-Fc, wells were washed, incubated with nickel-activated horseradish peroxidase (HisProbe-HRP) to detect bound EB2-His protein, washed, and then incubated with ELISA Pico Chemiluminescent Substrate (both from Thermo-Fisher) before being read in a luminometer. A single-protein counter ELISA using the dual-tagged EphB2-His-Fc ectodomain protein was also run. […] For simplicity, we call this compound A20."}, "[1]": {"test": "pharmacokinetics, single IP injection", "format": "in vivo, mouse", "design": "spinal cord AUC0-t / plasma AUC0-t / brain AUC0-t / liver AUC0-t: unit not given here", "conditions": "for biodistribution: IP, mice; for plasma AUC0-t: 24 hr; for Cmax / Tmax: mouse; for Cmax: ip, 20 mg/kg", "procedure": "Further studies were conducted as in vivo experiments to evaluate the effect of A20 when injected into the mouse. To formulate the compound for intraperitoneal (IP) injection, A20 was tested for solubility in various buffers, pH conditions, and with cyclodextrins (e.g. Captisol). The formulation was prepared by first dissolving A20 powder in DMSO and followed by mixing with sunflower seed oil (SSO) prior to administration (in 6% DMSO/94% SSO). […] PK profiling experiments were then conducted with A20 to determine its absorption, distribution, metabolism, and excretion (ADME) properties. Mice were given a single IP injection of 20 mg/kg A20 and after 10, 30, 90, 180, 360, 960, 1440 min, three animals per time point were sacrificed and tissue was collected and subjected to mass spectrometry.\nA study was conducted with A20 salt dissolved solely in PBS and injected at 20 mg/kg to match the previously described study of the free-base. […] The results from the brain, spinal cord, and liver tissues are particularly outstanding and indicate that significant levels of A20 salt remain even after the final collection at 24 hr time point."}, "[2]": {"test": "in vitro plasma stability", "format": "in vitro ADME", "conditions": "mouse plasma; for plasma stability: free base or salt", "procedure": "FIG. 46 depicts tests of A20 and A20-I free base and salt forms for in vitro plasma stability. Compounds were provided to the UT Southwestern PK Core facility and tested for stability when incubated with mouse plasma.\n(§1) To examine the drug-like nature of the disclosed compounds, tests for solubility was conducted."}, "[3]": {"test": "oral bioavailability, IV 3 mg/kg vs PO 30 mg/kg", "format": "in vivo, mouse", "conditions": "PBS", "procedure": "A20.2×HCl compound was provided to the UT Southwestern PK Core facility and tested for bioavailability after a single dose when either injected intravenous (IV) at 3 mg/kg or provided by oral gavage (PO) at 30 mg/kg using PBS as vehicle. The data on oral gavage is quite impressive and indicates significant levels of A20 persist, especially in the liver, after a single dose.\nas §1"}, "[4]": {"test_system": "DH neurons in the spinal cord", "test": "dorsal horn neuron activation (Tom+) after Zymosan", "format": "in vivo, mouse", "conditions": "PO", "from_the_text": "In this example, an in-house method to count and quantify/analyze Tom+ neurons (see Example 23) in the dorsal horn (DH) of the spinal cord is used to track the effect of an inflammatory insult (subcutaneous injection of CFA into the left hind paw). As described above in Example 23, we initially dissected perfusion-fixed spinal cords and then cut in the transverse plane 50 μm thick serial sections throughout the entire length of the lumbar cord of each animal using a vibratome aiming to capture all sections. As serial sections are cut, they are placed into 10 section bins (500 μm spinal cord per bin) and a total of 12 bins are collected spanning 6 mm total spinal cord length. […] Focusing in on this “sweet spot” of 4 bins, the additional sections were mounted and analyzed (aiming for at least 12 sections from these 4 bins, 3 per bin) to increase total data to analyze.\nIn another example, 307 Axioscan imaged lumbar spinal cord sections from the “sweet spots” of eight+/+wild-type mice subjected to Zymosan pain model and oral dosing of either vehicle (n=3), 3511-I (2×HCl, n=3), or BQPB4 (3×HCl, n=2) were analyzed. […] There was also a trend towards lower overall Tom+ ratios in the 3511-I or BQPB4 treated mice, though the numbers of mice analyzed here were too low to reveal significance."}},
  "note": "Values joined by “and” are separate entries in the source; they are usually repeats but may differ in a detail not shown here. Identical values can stand only once. Like-named read-outs stand apart in the source and are kept apart here.",
  "data": [
    {"smiles": "Oc1c(Br)cc(CN2CCOCC2)c2cccnc12", "note": "[Compound 5, 7-bromo-5-(morpholinomethyl)quinolin-8-ol]", "values": [
      {"measurement": "IC50", "setting": "EphB2-Fc with EB2-His", "result": "~10", "unit": "µM"},
      {"measurement": "counter ELISA signal", "setting": "EphB2-His-Fc", "result": "had no effect on signal in the single-protein ELISA"},
      {"measurement": "biodistribution", "setting": "[1]", "result": "distributes to plasma, brain, and spinal cord"},
      {"measurement": "brain AUC0-t", "setting": "[1]; free base, IP 20 mg/kg", "result": "6,684"},
      {"measurement": "spinal cord AUC0-t", "setting": "[1]; free base, IP 20 mg/kg", "result": "4,928"},
      {"measurement": "plasma AUC0-t", "setting": "[1]; free base, IP 20 mg/kg", "result": "14,636"},
      {"measurement": "Cmax", "setting": "[1]; brain, free base, IP 20 mg/kg, read-out: brain Cmax", "result": "104 ng/mL and 323 nM"},
      {"measurement": "Tmax", "setting": "[1]; brain, free base, IP 20 mg/kg, read-out: brain time of Cmax (converted)", "result": 10, "unit": "min"},
      {"measurement": "Cmax", "setting": "[1]; plasma, free base, IP 20 mg/kg, DMSO/SSO, read-out: plasma Cmax", "result": 0.214, "unit": "µg/mL"},
      {"measurement": "Cmax", "setting": "[1]; plasma, free base, IP 20 mg/kg, read-out: plasma Cmax", "result": 0.665, "unit": "µM"},
      {"measurement": "Tmax", "setting": "[1]; plasma, free base, IP 20 mg/kg, read-out: plasma time of Cmax (converted)", "result": 10, "unit": "min"},
      {"measurement": "Cmax", "setting": "[1]; spinal cord, free base, IP 20 mg/kg, read-out: spinal cord Cmax", "result": "88 ng/mL and 273 nM"},
      {"measurement": "plasma stability", "setting": "[2]", "result": "quite stable"}
    ]},
    {"smiles": "Oc1c(Br)cc(CN2CCOCC2)c2cccnc12", "note": "[Compound 6, 4-((7-bromo-8-hydroxyquinolin-1-ium-5-yl)methyl)morpholin-4-ium chloride]", "values": [
      {"measurement": "Cmax", "setting": "[1]; brain, salt in PBS, IP 20 mg/kg, read-out: brain Cmax", "result": "7.03 µM and 2790 ng/mL"},
      {"measurement": "Cmax", "setting": "[1]; liver, salt in PBS, IP 20 mg/kg, read-out: liver Cmax", "result": "22600 ng/mL and 57 µM"},
      {"measurement": "Cmax", "setting": "[1]; plasma, salt in PBS, IP 20 mg/kg, read-out: plasma Cmax", "result": "2880 ng/mL and 7.27 µM"},
      {"measurement": "Cmax", "setting": "[1]; spinal cord, salt in PBS, IP 20 mg/kg, read-out: spinal cord Cmax", "result": "3310 ng/mL and 8.35 µM"},
      {"measurement": "brain AUC0-t", "setting": "[1]; salt in PBS, IP 20 mg/kg", "result": "136,933"},
      {"measurement": "brain time of Cmax", "setting": "[1]; salt in PBS, IP 20 mg/kg", "result": 10, "unit": "min"},
      {"measurement": "liver AUC0-t", "setting": "[1]; salt in PBS, IP 20 mg/kg", "result": "1,363,490"},
      {"measurement": "plasma time of Cmax", "setting": "[1]; salt in PBS, IP 20 mg/kg", "result": 10, "unit": "min"},
      {"measurement": "spinal cord AUC0-t", "setting": "[1]; salt in PBS, IP 20 mg/kg", "result": "86,044"},
      {"measurement": "plasma AUC0-t", "setting": "[1]; salt in PBS, IP 20 mg/kg", "result": "81,039"},
      {"measurement": "brain AUC0-t increase over the free-base", "setting": "[1]; salt vs free-base", "result": "> 20", "unit": "fold"},
      {"measurement": "brain Cmax increase over the free-base", "setting": "[1]; salt vs free-base", "result": "> 26", "unit": "fold"},
      {"measurement": "plasma AUC0-t increase over the free-base", "setting": "[1]; salt vs free-base", "result": "> 5.5", "unit": "fold"},
      {"measurement": "plasma Cmax increase over the free-base", "setting": "[1]; salt vs free-base", "result": "> 13", "unit": "fold"},
      {"measurement": "spinal cord AUC0-t increase over the free-base", "setting": "[1]; salt vs free-base", "result": "> 17", "unit": "fold"},
      {"measurement": "spinal cord Cmax increase over the free-base", "setting": "[1]; salt vs free-base", "result": "> 37", "unit": "fold"},
      {"measurement": "oral bioavailability", "setting": "[3]", "result": "orally bioavailable"}
    ]},
    {"smiles": "Oc1c(I)cc(CN2CCOCC2)c2cccnc12", "note": "[Compound 7, 7-iodo-5-(morpholinomethyl)quinolin-8-ol]", "values": [
      {"measurement": "plasma half-life longer than A20", "setting": "[2]", "result": "3-5 times"},
      {"measurement": "plasma stability", "setting": "[2]", "result": "superior stability"}
    ]},
    {"smiles": "Oc1c(Br)cc(CN2CCN(c3ccc(Br)cc3)CC2)c2cccnc12", "note": "[Compound 28, 7-bromo-5-((4-(4-bromophenyl)piperazin-1-yl)methyl)quinolin-8-ol]", "values": [
      {"measurement": "ratio of Tom+ DH neurons", "setting": "[4]", "result": "significantly lower ratio of Tom+ neurons compared to the vehicle treated animals"}
    ]},
    {"smiles": "Oc1ccc(CN2CCN(Cc3ccc(Br)cc3)CC2)c2cccnc12", "note": "[Compound 42, 5-((4-(4-bromobenzyl)piperazin-1-yl)methyl)quinolin-8-ol]", "values": [
      {"measurement": "biodistribution", "setting": "[1]; listed as QPB4-Bn", "result": "significantly high levels of compound reach intended tissues (i.e., brain, spinal cord, liver, skin) and persist at high concentrations during the 24 hr period"}
    ]},
    {"smiles": "COc1ccccc1N1CCN(Cc2cc(I)c(O)c3ncccc23)CC1", "note": "[Compound 71, 7-iodo-5-((4-(2-methoxyphenyl)piperazin-1-yl)methyl)quinolin-8-ol]", "values": [
      {"measurement": "ratio of Tom+ DH neurons", "setting": "[4]", "result": "significantly lower ratio of Tom+ neurons compared to the vehicle treated animals"}
    ]}
  ]
}
